From ChEMBL document CHEMBL1909046, “DrugMatrix in vitro pharmacology data”

What was measured:
[1] = target: Beta-2 adrenergic receptor (Homo sapiens, UniProt P07550); assay: DRUGMATRIX: Adrenergic beta2 radioligand binding (ligand: [3H] CGP-12177); assay type: cell membranes, Membrane; settings: cho; Not Active = under 50% inhibition at 10 µM
[2] = DRUGMATRIX: Sodium/nucleoside co-transporter radioligand binding (ligand: nitrobenzylthioinosine); assay type: cell membranes, Cavia porcellus, Dunkin-Hartley, Cerebral cortex, Membrane; settings: Not Active = under 50% inhibition at 10 µM
[3] = DRUGMATRIX: Interleukin IL-1 radioligand binding (ligand: [125I] interleukin 1beta); assay type: cell membranes, Membrane; settings: nih3t3; Not Active = under 50% inhibition at 10 µM
[4] = target: 5-hydroxytryptamine receptor 1B (Rattus norvegicus, UniProt P28564); assay type: cell membranes, Wistar, Cerebral cortex, Membrane; further: in other assays of this panel Not Active means under 50% inhibition at 10 µM
Sequence of 5-hydroxytryptamine receptor 1B (P28564 whole entry): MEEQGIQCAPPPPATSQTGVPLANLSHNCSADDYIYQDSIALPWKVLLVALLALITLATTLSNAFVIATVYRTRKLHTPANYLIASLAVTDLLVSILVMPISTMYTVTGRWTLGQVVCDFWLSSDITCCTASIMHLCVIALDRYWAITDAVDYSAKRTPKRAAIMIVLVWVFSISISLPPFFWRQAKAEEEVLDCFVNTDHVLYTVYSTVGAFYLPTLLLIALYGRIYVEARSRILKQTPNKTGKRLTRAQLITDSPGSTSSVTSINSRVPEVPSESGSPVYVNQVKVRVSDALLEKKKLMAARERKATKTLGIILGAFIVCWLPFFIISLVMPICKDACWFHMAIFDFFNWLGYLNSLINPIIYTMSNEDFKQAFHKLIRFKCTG

[5] = target: T1, Neuropeptide Y receptor type 2 (Homo sapiens, UniProt P49146); assay type: cell membranes, Membrane; settings: kan-ts; further: in other assays of this panel Not Active means under 50% inhibition at 10 µM
T1 sequence (P49146 whole entry): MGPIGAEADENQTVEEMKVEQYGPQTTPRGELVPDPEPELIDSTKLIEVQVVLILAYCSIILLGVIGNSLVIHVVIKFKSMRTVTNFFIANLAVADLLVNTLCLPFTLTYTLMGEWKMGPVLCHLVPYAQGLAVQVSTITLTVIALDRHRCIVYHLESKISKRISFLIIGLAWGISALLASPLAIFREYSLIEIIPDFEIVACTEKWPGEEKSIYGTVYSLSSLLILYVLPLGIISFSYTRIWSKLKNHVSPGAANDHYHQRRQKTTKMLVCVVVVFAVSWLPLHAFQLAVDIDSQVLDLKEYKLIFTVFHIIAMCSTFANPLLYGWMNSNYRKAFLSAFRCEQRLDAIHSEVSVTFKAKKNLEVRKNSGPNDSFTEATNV

Melanocortin receptor 5 = Melanocortin receptor 5 (Homo sapiens, UniProt P33032); assay type: cell membranes, HEK293, Membrane; settings: hek293; further: in other assays of this panel Not Active means under 50% inhibition at 10 µM
Sequence of Melanocortin receptor 5 (P33032 whole entry): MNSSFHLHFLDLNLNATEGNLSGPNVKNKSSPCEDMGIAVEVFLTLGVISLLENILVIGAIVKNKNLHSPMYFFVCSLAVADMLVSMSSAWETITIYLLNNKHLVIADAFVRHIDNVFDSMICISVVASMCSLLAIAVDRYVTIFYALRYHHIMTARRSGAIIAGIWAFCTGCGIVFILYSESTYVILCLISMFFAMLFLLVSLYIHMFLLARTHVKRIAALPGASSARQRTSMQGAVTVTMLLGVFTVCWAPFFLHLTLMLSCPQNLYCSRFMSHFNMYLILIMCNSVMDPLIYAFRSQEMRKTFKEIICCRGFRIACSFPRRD

[6] = target: Sodium-dependent noradrenaline transporter (Homo sapiens, UniProt P23975); assay: DRUGMATRIX: Norepinephrine Transporter radioligand binding (ligand: [125I] RTI-55); assay type: cell membranes, MDCK, Membrane; settings: mdck; Not Active = under 50% inhibition at 10 µM
Sequence of Sodium-dependent noradrenaline transporter (P23975 whole entry): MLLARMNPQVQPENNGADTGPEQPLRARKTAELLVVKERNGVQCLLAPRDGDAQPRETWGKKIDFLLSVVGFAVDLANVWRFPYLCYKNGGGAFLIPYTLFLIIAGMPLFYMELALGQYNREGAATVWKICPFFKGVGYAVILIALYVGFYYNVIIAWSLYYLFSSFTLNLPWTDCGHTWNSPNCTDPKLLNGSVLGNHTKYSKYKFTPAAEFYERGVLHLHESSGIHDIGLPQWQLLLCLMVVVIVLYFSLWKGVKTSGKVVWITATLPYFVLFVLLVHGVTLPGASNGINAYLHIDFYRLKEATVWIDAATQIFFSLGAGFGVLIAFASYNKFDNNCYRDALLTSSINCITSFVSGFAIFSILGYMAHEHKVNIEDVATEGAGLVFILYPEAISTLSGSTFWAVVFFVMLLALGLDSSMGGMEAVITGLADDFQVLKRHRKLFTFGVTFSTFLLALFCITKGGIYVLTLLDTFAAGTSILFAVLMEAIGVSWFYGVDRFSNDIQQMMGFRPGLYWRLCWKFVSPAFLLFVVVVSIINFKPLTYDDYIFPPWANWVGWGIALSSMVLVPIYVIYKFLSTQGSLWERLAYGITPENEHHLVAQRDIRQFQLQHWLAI

Melanocortin receptor 4 = Melanocortin receptor 4 (Homo sapiens, UniProt P32245); assay type: cell membranes, Membrane; settings: hek293; further: in other assays of this panel Not Active means under 50% inhibition at 10 µM
Sequence of Melanocortin receptor 4 (P32245 whole entry): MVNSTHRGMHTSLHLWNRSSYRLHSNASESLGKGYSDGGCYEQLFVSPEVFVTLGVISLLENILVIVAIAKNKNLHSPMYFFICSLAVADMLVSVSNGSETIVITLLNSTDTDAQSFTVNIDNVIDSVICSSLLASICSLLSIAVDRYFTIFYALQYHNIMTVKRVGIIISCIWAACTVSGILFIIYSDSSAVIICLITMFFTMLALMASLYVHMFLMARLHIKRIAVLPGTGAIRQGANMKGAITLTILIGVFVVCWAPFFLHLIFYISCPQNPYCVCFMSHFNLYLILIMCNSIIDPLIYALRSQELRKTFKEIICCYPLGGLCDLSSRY

[7] = target: Platelet-activating factor receptor (Homo sapiens, UniProt P25105); assay: biochemical; assay type: tissue-based; settings: platelet; further: in other assays of this panel Not Active means under 50% inhibition at 10 µM
Sequence of Platelet-activating factor receptor (P25105 whole entry): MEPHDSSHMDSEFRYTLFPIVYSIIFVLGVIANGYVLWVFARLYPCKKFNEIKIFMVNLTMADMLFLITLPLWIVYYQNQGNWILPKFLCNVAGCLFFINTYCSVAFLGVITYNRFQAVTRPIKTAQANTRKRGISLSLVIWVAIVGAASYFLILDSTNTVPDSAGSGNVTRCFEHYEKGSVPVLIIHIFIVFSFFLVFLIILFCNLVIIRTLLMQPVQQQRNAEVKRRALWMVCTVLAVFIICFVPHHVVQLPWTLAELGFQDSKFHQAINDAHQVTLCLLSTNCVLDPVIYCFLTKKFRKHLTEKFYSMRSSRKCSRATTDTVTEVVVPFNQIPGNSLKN

[8] = target: T2, Muscarinic acetylcholine receptor M5 (Homo sapiens, UniProt P08912); assay type: cell membranes, CHO-K1, Membrane; settings: cho-k1; further: in other assays of this panel Not Active means under 50% inhibition at 10 µM
T2 sequence (P08912 whole entry): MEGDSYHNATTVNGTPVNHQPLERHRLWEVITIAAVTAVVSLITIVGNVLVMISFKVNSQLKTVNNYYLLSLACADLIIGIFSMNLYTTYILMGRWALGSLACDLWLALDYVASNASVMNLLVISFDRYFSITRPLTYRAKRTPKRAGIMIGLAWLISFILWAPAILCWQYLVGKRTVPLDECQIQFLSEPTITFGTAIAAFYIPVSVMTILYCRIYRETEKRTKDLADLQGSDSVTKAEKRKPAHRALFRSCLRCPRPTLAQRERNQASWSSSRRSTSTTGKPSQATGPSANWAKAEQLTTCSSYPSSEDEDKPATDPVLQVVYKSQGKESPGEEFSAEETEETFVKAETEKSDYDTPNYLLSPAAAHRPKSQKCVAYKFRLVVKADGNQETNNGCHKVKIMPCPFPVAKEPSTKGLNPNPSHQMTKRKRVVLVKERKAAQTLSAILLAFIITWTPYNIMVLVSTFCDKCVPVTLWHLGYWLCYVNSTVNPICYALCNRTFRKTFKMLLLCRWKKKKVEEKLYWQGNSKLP

Cytochrome P450 2C19 = Cytochrome P450 2C19 (Homo sapiens, UniProt P33261); settings: bti-tn-5b1-4; further: in other assays of this panel Not Active means under 50% inhibition at 10 µM
Sequence of Cytochrome P450 2C19 (P33261 whole entry): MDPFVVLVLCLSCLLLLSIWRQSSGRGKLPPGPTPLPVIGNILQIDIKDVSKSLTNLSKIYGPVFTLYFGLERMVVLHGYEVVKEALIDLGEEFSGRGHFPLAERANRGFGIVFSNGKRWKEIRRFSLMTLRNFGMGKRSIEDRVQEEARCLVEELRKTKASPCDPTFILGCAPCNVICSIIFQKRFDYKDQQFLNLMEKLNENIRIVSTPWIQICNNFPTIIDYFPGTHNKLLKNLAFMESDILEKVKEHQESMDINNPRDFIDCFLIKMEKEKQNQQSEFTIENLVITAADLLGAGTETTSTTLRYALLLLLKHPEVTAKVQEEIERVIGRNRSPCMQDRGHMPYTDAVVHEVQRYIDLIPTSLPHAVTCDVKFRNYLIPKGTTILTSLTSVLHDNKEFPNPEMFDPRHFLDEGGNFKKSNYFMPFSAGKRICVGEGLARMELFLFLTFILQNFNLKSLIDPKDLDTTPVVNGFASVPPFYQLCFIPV

Interstitial collagenase = target: T3, Interstitial collagenase (Homo sapiens, UniProt P03956); assay type: tissue-based, Rheumatoid synovial fibroblasts
T3 sequence (P03956 whole entry): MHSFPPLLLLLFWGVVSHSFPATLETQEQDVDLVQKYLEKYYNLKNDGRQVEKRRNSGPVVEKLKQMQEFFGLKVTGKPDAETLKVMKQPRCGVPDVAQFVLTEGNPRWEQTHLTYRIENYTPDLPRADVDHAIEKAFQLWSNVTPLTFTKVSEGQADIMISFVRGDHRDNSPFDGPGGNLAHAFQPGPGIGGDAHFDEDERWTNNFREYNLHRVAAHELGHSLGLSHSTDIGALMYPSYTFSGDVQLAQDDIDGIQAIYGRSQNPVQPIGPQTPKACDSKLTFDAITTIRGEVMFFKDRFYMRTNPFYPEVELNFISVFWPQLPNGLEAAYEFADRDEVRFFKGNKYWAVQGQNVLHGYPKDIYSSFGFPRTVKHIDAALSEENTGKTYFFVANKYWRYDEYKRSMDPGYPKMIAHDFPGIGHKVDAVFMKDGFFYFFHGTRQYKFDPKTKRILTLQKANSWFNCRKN

[9] = target: T4, Muscarinic acetylcholine receptor M4 (Homo sapiens, UniProt P08173); assay type: cell membranes, CHO-K1, Membrane; settings: cho-k1; further: in other assays of this panel Not Active means under 50% inhibition at 10 µM
T4 sequence (P08173 whole entry): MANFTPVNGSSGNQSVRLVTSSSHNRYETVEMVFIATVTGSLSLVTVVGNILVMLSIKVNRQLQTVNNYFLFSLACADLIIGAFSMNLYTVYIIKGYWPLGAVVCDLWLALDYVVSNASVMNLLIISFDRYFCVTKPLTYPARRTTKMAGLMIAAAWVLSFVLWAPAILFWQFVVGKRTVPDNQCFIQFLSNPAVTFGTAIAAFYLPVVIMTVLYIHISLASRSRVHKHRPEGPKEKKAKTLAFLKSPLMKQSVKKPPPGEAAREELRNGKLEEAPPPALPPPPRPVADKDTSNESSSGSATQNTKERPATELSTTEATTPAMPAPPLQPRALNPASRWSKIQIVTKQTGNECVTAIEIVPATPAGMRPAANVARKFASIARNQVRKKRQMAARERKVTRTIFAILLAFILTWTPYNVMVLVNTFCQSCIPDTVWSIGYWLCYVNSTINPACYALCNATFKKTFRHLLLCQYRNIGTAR

Sequence of Beta-2 adrenergic receptor (P07550 whole entry): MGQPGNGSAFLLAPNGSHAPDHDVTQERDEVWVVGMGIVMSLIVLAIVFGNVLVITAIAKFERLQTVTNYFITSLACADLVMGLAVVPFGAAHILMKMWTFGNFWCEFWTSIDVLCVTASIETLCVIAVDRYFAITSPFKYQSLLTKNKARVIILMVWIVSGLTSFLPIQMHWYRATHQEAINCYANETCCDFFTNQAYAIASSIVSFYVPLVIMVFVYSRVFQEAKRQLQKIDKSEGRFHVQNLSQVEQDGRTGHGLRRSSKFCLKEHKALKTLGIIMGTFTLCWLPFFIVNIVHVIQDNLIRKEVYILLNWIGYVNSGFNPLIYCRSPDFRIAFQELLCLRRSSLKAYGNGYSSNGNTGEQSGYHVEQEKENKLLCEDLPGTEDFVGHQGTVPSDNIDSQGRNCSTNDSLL

Cc1c(-c2ccccc2)oc2c(C(=O)OCCN3CCCCC3)cccc2c1=O [FLAVOXATE]
Not Active: IC50 [1] | IC50 [2] | Ki [2] | IC50 [3] | Ki [3] | IC50 [4] | IC50 [5] | IC50 (Melanocortin receptor 5) | IC50 [6] | IC50 (Melanocortin receptor 4) | IC50 [7] | IC50 [8] | IC50 (Cytochrome P450 2C19) | Ki (Cytochrome P450 2C19) | IC50 (Interstitial collagenase) | IC50 [9]

CC(=O)[C@@]1(O)CC[C@H]2[C@@H]3C[C@H](C)C4=CC(=O)C=C[C@]4(C)[C@@]3(F)[C@@H](O)C[C@@]21C [FLUOROMETHOLONE]
Not Active: IC50 [1] | IC50 [2] | Ki [2] | IC50 [3] | Ki [3] | IC50 [4] | IC50 [5] | IC50 (Melanocortin receptor 5) | IC50 [6] | IC50 (Melanocortin receptor 4) | IC50 [7] | IC50 [8] | IC50 (Cytochrome P450 2C19) | Ki (Cytochrome P450 2C19) | IC50 (Interstitial collagenase) | IC50 [9]

O=c1[nH]cc(F)c(=O)[nH]1 [FLUOROURACIL]
Not Active: IC50 [1] | IC50 [2] | Ki [2] | IC50 [3] | Ki [3] | IC50 [4] | IC50 [5] | IC50 (Melanocortin receptor 5) | IC50 [6] | IC50 (Melanocortin receptor 4) | IC50 [7] | IC50 [8] | IC50 (Cytochrome P450 2C19) | Ki (Cytochrome P450 2C19) | IC50 (Interstitial collagenase) | IC50 [9]

CC(C)n1c(/C=C/C(O)CC(O)CC(=O)O)c(-c2ccc(F)cc2)c2ccccc21 (centres undefined) [FLUVASTATIN]
Not Active: IC50 [1] | IC50 [2] | Ki [2] | IC50 [3] | Ki [3] | IC50 [4] | IC50 [5] | IC50 (Melanocortin receptor 5) | IC50 [6] | IC50 (Melanocortin receptor 4) | IC50 [7] | IC50 [8] | IC50 (Cytochrome P450 2C19) | Ki (Cytochrome P450 2C19) | IC50 (Interstitial collagenase) | IC50 [9]

NCC1(CC(=O)O)CCCCC1 [GABAPENTIN]
Not Active: IC50 [1] | IC50 [2] | Ki [2] | IC50 [3] | Ki [3] | IC50 [4] | IC50 [5] | IC50 (Melanocortin receptor 5) | IC50 [6] | IC50 (Melanocortin receptor 4) | IC50 [7] | IC50 [8] | IC50 (Cytochrome P450 2C19) | Ki (Cytochrome P450 2C19) | IC50 (Interstitial collagenase) | IC50 [9]

CC[N+](CC)(CC)CCOc1cccc(OCC[N+](CC)(CC)CC)c1OCC[N+](CC)(CC)CC.[I-].[I-].[I-] [GALLAMINE TRIETHIODIDE]
Not Active: IC50 [1] | IC50 [2] | Ki [2] | IC50 [3] | Ki [3] | IC50 [4] | IC50 [5] | IC50 (Melanocortin receptor 5) | IC50 [6] | IC50 (Melanocortin receptor 4) | IC50 [7] | IC50 [8] | IC50 (Cytochrome P450 2C19) | Ki (Cytochrome P450 2C19) | IC50 (Interstitial collagenase) | IC50 [9]

COc1c(N2CCNC(C)C2)c(F)cc2c(=O)c(C(=O)O)cn(C3CC3)c12 (centres undefined) [GATIFLOXACIN]
Not Active: IC50 [1] | IC50 [2] | Ki [2] | IC50 [3] | Ki [3] | IC50 [4] | IC50 [5] | IC50 (Melanocortin receptor 5) | IC50 [6] | IC50 (Melanocortin receptor 4) | IC50 [7] | IC50 [8] | IC50 (Cytochrome P450 2C19) | Ki (Cytochrome P450 2C19) | IC50 (Interstitial collagenase) | IC50 [9]

CC1(C)[C@@H](O[C@H]2O[C@H](C(=O)O)[C@@H](O)[C@H](O)[C@H]2O[C@@H]2O[C@H](C(=O)O)[C@@H](O)[C@H](O)[C@H]2O)CC[C@]2(C)[C@H]3C(=O)C=C4[C@@H]5C[C@@](C)(C(=O)O)CC[C@]5(C)CC[C@@]4(C)[C@]3(C)CC[C@@H]12 [GLYCYRRHIZIN]
Not Active: IC50 [1] | IC50 [2] | Ki [2] | IC50 [3] | Ki [3] | IC50 [4] | IC50 [5] | IC50 (Melanocortin receptor 5) | IC50 [6] | IC50 (Melanocortin receptor 4) | IC50 [7] | IC50 [8] | IC50 (Cytochrome P450 2C19) | Ki (Cytochrome P450 2C19) | IC50 (Interstitial collagenase) | IC50 [9]

COC1=CC(=O)C[C@@H](C)[C@]12Oc1c(Cl)c(OC)cc(OC)c1C2=O [GRISEOFULVIN]
Not Active: IC50 [1] | IC50 [2] | Ki [2] | IC50 [3] | Ki [3] | IC50 [4] | IC50 [5] | IC50 (Melanocortin receptor 5) | IC50 [6] | IC50 (Melanocortin receptor 4) | IC50 [7] | IC50 [8] | IC50 (Cytochrome P450 2C19) | Ki (Cytochrome P450 2C19) | IC50 (Interstitial collagenase) | IC50 [9]
